Reference: ChEMBL document CHEMBL1201862, “PubChem BioAssay data set” (2004)
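Protocol summary: plate cells (96-well), add compound at 5 concentrations, incubate 48 h, interpolate endpoints linearly. GI50 is the concentration that inhibits growth by half.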 Calls of active or inactive are those of the source. Rule as the data show it: active = GI50 up to about 1.1 µM and inactive = higher. Peptide text beside a SMILES is read from it. * marks the point of attachment. Boc = CC(C)(C)OC(=O)*

Key:
Assay in all cases: NCI tumour cell line growth inhibition, 48 h
[1] = tested on: UO-31
[2] = tested on: M14
[3] = tested on: SK-MEL-5
[4] = tested on: OVCAR-3
[5] = tested on: SNB-19
[6] = tested on: LOX IMVI
[7] = tested on: CCRF-CEM
[8] = tested on: NCI/ADR-RES
[9] = tested on: IGROV-1
[10] = tested on: HCC 2998
[11] = tested on: NCI-H460
[12] = tested on: RPMI-8226
[13] = tested on: PC-3
[14] = tested on: SN12C
[15] = tested on: DU-145
[16] = tested on: TK-10
[17] = tested on: NCI-H23
[18] = tested on: CAKI-1
[19] = tested on: Hs-578T
[20] = tested on: MOLT-4

Row | SMILES | GI50 [1] | GI50 [2] | GI50 [3] | GI50 [4] | GI50 [5] | GI50 [6] | GI50 [7] | GI50 [8] | GI50 [9] | GI50 [10] | GI50 [11] | GI50 [12] | GI50 [13] | GI50 [14] | GI50 [15] | GI50 [16] | GI50 [17] | GI50 [18] | GI50 [19] | GI50 [20]
1 | O=C(Nc1ccccc1)Nn1c(-c2cccs2)nc2ccc(I)cc2c1=O | 21.2 µM (inactive) | 35.9 µM (inactive) | 17.1 µM (inactive) | 11 µM (inactive) | 42.2 µM (inactive) | 19.2 µM (inactive) | 20.5 µM (inactive) | 30.6 µM (inactive) | 19.7 µM (inactive) | 25.8 µM (inactive) | 26.2 µM (inactive) | 19.1 µM (inactive) | 27.4 µM (inactive) | 34.8 µM (inactive) | 24.3 µM (inactive) | 28.4 µM (inactive) | 27.3 µM (inactive) | 23.8 µM (inactive) |  | 
2 | C[N+](C)(C)CC1CCC(C[N+](C)(C)C)C1=O (stereo not drawn) | 4.34 µM (inactive) | 1.72 µM (inactive) | 9.02 µM (inactive) | 2.39 µM (inactive) | 17.9 µM (inactive) | 4.84 µM (inactive) |  |  | 7.94 µM (inactive) | 8.63 µM (inactive) | 24.3 µM (inactive) | 0.328 µM (active) | 17.2 µM (inactive) | 4.12 µM (inactive) | 15.5 µM (inactive) | 3.3 µM (inactive) | 4.22 µM (inactive) | 0.668 µM (active) | 38.6 µM (inactive) | 
3 | NC(CCP(=O)(O)O)C(=O)O (stereo not drawn) | > 100 µM (inactive) | > 100 µM (inactive) | > 100 µM (inactive) | > 100 µM (inactive) | > 100 µM (inactive) | > 100 µM (inactive) | > 100 µM (inactive) | > 100 µM (inactive) | > 100 µM (inactive) |  | > 100 µM (inactive) | > 100 µM (inactive) | > 100 µM (inactive) | > 100 µM (inactive) |  | > 100 µM (inactive) | > 100 µM (inactive) | > 100 µM (inactive) | > 100 µM (inactive) | > 100 µM (inactive)
4 | NC(CCC(=O)O)(CCC(=O)O)CCC(=O)O | > 100 µM (inactive) | > 100 µM (inactive) | > 100 µM (inactive) |  | > 100 µM (inactive) |  | > 100 µM (inactive) | > 100 µM (inactive) | > 100 µM (inactive) |  | > 100 µM (inactive) | > 100 µM (inactive) | > 100 µM (inactive) | > 100 µM (inactive) | > 100 µM (inactive) | > 100 µM (inactive) | > 100 µM (inactive) | > 100 µM (inactive) | > 100 µM (inactive) | > 100 µM (inactive)
5 | CC1=[N+]([O-])C(C)(C)N(O)C1(C)C | > 100 µM (inactive) | > 100 µM (inactive) | > 100 µM (inactive) | > 100 µM (inactive) | > 100 µM (inactive) | > 100 µM (inactive) | > 100 µM (inactive) | > 100 µM (inactive) | > 100 µM (inactive) | > 100 µM (inactive) | > 100 µM (inactive) | > 100 µM (inactive) | > 100 µM (inactive) | > 100 µM (inactive) | > 100 µM (inactive) | > 100 µM (inactive) | > 100 µM (inactive) |  |  | > 100 µM (inactive)
6 | COC(=O)/C=C1/SC(/C(=C(/[O-])OC)[n+]2ccc3ccccc3c2)=NC1=O | > 100 µM (inactive) | > 100 µM (inactive) | > 100 µM (inactive) |  | > 100 µM (inactive) | > 100 µM (inactive) | > 100 µM (inactive) | > 100 µM (inactive) | > 100 µM (inactive) |  |  | > 100 µM (inactive) | > 100 µM (inactive) | > 100 µM (inactive) | > 100 µM (inactive) |  | > 100 µM (inactive) | > 100 µM (inactive) | 25.4 µM (inactive) | > 100 µM (inactive)
7 | COC(=O)C(Cc1c[nH]c2ccccc12)NC(=O)C(Cc1c[nH]c2ccccc12)NC(=O)C(Cc1c[nH]c2ccccc12)NC(=O)C(Cc1c[nH]c2ccccc12)NC(=O)C(Cc1c[nH]c2ccccc12)NC(=O)OC(C)(C)C (stereo not drawn) (Boc-WWWWW-OMe; configuration not given here) | 36.6 µM (inactive) | 33.3 µM (inactive) | 17.5 µM (inactive) | > 100 µM (inactive) | 39 µM (inactive) | 67.6 µM (inactive) | 74 µM (inactive) |  | 30 µM (inactive) | > 100 µM (inactive) | 84.1 µM (inactive) | 26.2 µM (inactive) | > 100 µM (inactive) | > 100 µM (inactive) | 33.4 µM (inactive) | > 100 µM (inactive) | 58.1 µM (inactive) | > 100 µM (inactive) |  | 19.6 µM (inactive)
8 | CC(C)(C)OC[C@H](O)CC#N | > 100 µM (inactive) | > 100 µM (inactive) | > 100 µM (inactive) | > 100 µM (inactive) | > 100 µM (inactive) | > 100 µM (inactive) | > 100 µM (inactive) |  |  | > 100 µM (inactive) | > 100 µM (inactive) | > 100 µM (inactive) | > 100 µM (inactive) | > 100 µM (inactive) | > 100 µM (inactive) | > 100 µM (inactive) | > 100 µM (inactive) | > 100 µM (inactive) | > 100 µM (inactive) | > 100 µM (inactive)
9 | Nc1ccc(Cc2ccc(N)c(C(=O)O)c2)cc1C(=O)O | > 100 µM (inactive) | > 100 µM (inactive) | > 100 µM (inactive) | > 100 µM (inactive) | > 100 µM (inactive) | > 100 µM (inactive) | > 100 µM (inactive) | > 100 µM (inactive) | > 100 µM (inactive) | > 100 µM (inactive) | > 100 µM (inactive) | > 100 µM (inactive) | > 100 µM (inactive) | > 100 µM (inactive) |  | > 100 µM (inactive) | > 100 µM (inactive) | > 100 µM (inactive) | > 100 µM (inactive) | 
10 | CC(C)(C)OC(=O)NCC(=O)N1CCN(C(=O)CNC(=O)OC(C)(C)C)CC1 | > 100 µM (inactive) | > 100 µM (inactive) | > 100 µM (inactive) | > 100 µM (inactive) | > 100 µM (inactive) | > 100 µM (inactive) | > 100 µM (inactive) | > 100 µM (inactive) | > 100 µM (inactive) | > 100 µM (inactive) |  | > 100 µM (inactive) | > 100 µM (inactive) | > 100 µM (inactive) | > 100 µM (inactive) | > 100 µM (inactive) | > 100 µM (inactive) | > 100 µM (inactive) |  | > 100 µM (inactive)
11 | Cn1c(-c2ccc(C=O)o2)ccc1-c1ccc(C=O)o1 | 35.3 µM (inactive) | 31 µM (inactive) | 30.9 µM (inactive) | 26.2 µM (inactive) | 54.8 µM (inactive) | 31.7 µM (inactive) | > 100 µM (inactive) | 35.7 µM (inactive) | 36.9 µM (inactive) | > 100 µM (inactive) | > 100 µM (inactive) | 57.1 µM (inactive) | 39.4 µM (inactive) | 37.6 µM (inactive) | 49.4 µM (inactive) | > 100 µM (inactive) | 45.7 µM (inactive) | 12.5 µM (inactive) |  | 24.8 µM (inactive)
12 | CC(=O)N1N=C(c2ccccc2Nc2ccccc2C2=NN(C(C)=O)C(c3ccccc3)O2)OC1c1ccccc1 (stereo not drawn) | 48.5 µM (inactive) | 56.1 µM (inactive) | 51.2 µM (inactive) | > 100 µM (inactive) | > 100 µM (inactive) | 81.8 µM (inactive) |  | 55.6 µM (inactive) | > 100 µM (inactive) | > 100 µM (inactive) | 26.7 µM (inactive) | 25.3 µM (inactive) | 10.4 µM (inactive) | > 100 µM (inactive) | > 100 µM (inactive) | > 100 µM (inactive) | 60.7 µM (inactive) |  |  | 4.76 µM (inactive)
13 | COc1cc(C(=O)C/C(CCC(=O)Nc2ccccc2[N+](=O)[O-])=N\NC(N)=O)ccc1O | > 100 µM (inactive) | > 100 µM (inactive) | > 100 µM (inactive) | > 100 µM (inactive) | > 100 µM (inactive) | > 100 µM (inactive) | > 100 µM (inactive) |  | > 100 µM (inactive) | > 100 µM (inactive) | > 100 µM (inactive) | > 100 µM (inactive) |  | > 100 µM (inactive) |  | > 100 µM (inactive) | > 100 µM (inactive) | > 100 µM (inactive) |  | > 100 µM (inactive)
14 | C#CCN(Cc1ccc2[nH]c(N)nc(=O)c2c1)c1ccc(C(=O)NC(CCC(=O)O)C(=O)O)cc1 (stereo not drawn) | 5.66 µM (inactive) | 51.3 µM (inactive) | > 100 µM (inactive) | 9.71 µM (inactive) | 40.4 µM (inactive) | 3.24 µM (inactive) | 6.5 µM (inactive) | 36.6 µM (inactive) | 62.1 µM (inactive) | > 100 µM (inactive) | 6.95 µM (inactive) | 7.46 µM (inactive) | > 100 µM (inactive) | 6.71 µM (inactive) | 5.94 µM (inactive) | 10.8 µM (inactive) | > 100 µM (inactive) | 5.3 µM (inactive) |  | 5.4 µM (inactive)
15 | COc1ccc(C2Cc3cc(OC)c(OC)c(OC)c3C2)cc1 (stereo not drawn) | 21.3 µM (inactive) | 35.6 µM (inactive) | 16.3 µM (inactive) | 38.8 µM (inactive) | 55.6 µM (inactive) | 56.8 µM (inactive) | 32.6 µM (inactive) |  | > 100 µM (inactive) | 49.9 µM (inactive) | 46.6 µM (inactive) | 18.8 µM (inactive) |  | 52.2 µM (inactive) |  | 30.3 µM (inactive) | 9.59 µM (inactive) | 36.9 µM (inactive) |  | 22.4 µM (inactive)
